In patent US6998143B1, “Ferric fortification system” (Nestec S.A., priority 1999, dated 2006):

Legend:
[1] = test system: weanling male Sprague-Dawley rats; assay: Iron bioavailability by hemoglobin repletion in anemic rats (slope-ratio); assay type: in vivo, rat
Protocol: Animals:—The animals used are weanling male Sprague-Dawley rats aged 3 weeks (IFFA-CREDO, L'Arbresle, France).
This diet is casein based and provides for the nutritional requirements of growing rats except for iron.
Diet 1:—The control diet supplemented with the complex of example 2 to provide 10 mg/kg iron.
Diet 2:—The control diet supplemented with the complex of example 2 to provide 20 mg/kg iron.
1) Hemoglobin analysis is performed by anaesthetizing the rats with isoflurane and then drawing a sample of 200 μL of blood from the orbital venous plexus. Blood hemoglobin level in the sample is determined by the cyanmethemoglobin method (Hb kit MPR 3, Bochringer Mannheim GmbH, Germany), using an automated instrument (Hemocue, Baumann-Medical SA, Wetzikon, Switzerland). Commercial quality control blood samples (Dia-HT Kontrollblut, Dia MED, Cressier, Switzerland) having a range of hemoglobin levels are measured with all hemoglobin determinations.
A multiple regression equation relates amounts of iron added to the hemoglobin levels. The equation provides one straight line per diet which intercepts at zero dose.
Procedure:—Rats are housed individually in polycarbonate cages, fitted with stainless steel grids. The animals are allowed free access to distilled water. […] Fresh diet is supplied daily. Spoiling of diet by rats is reduced by covering the diet with a grid.
After 24 days, hemoglobin and weight is determined. Fifty rats with hemoglobin levels between […] are randomized into 5 groups of 10 having approximately equal mean hemoglobin and body weight. Each group of animals is fed one of the experimental diets for 14 days. The rats are fed the diets ad libitum beginning with 20 g/day at day 0. The rats have free access to distilled water. Individual food consumption is measured daily. After 14 days, the rats are weighed and hemoglobin is determined.

[2] = Lipid oxidation induction time in fish oil (Rancimat); assay type: physicochemical; conditions: fish oil in place of chicken fat, 100° C.
Protocol: The powder of example 3 is added to chicken fat to provide 40 mg of iron per 1000 g of fat. As a negative control, ferric sulfate is added to chicken fat to provide the same iron loading. Chicken fat without any added iron is used as a positive control.
The fat samples are heated to 100° C. and the lipid oxidation induction time is determined using a Rancimat. No difference in induction time between the fat fortified with the powder of example 3 and the positive control is determined. The induction time of the negative control is 30 to 40% less.
The procedure of example 8 is repeated except that fish oil is used in place of chicken fat. The results are similar.

[3] = diet with 10 mg/kg added Fe for 14 days
[4] = diet with 20 mg/kg added Fe for 14 days

Structure (SMILES) | Initial hemoglobin, mean (standard deviation) ([1]; baseline before diet with 10 mg/kg added Fe) | Initial hemoglobin, mean (standard deviation) ([1]; baseline before diet with 20 mg/kg added Fe) | Difference in hemoglobin (final minus initial), mean [1, 3] [g/dL] | Final hemoglobin, mean [1, 3] [g/dL] | Difference in hemoglobin (final minus initial), mean [1, 4] [g/dL] | Final hemoglobin, mean [1, 4] [g/dL] | lipid oxidation induction time results compared with those of example 8 [2]
O.O.O.O.O.O.O.O=S(=O)([O-])[O-].[Fe+2] [FeSO4.7H2O, ferrous sulfate heptahydrate] | 5.12 (0.41) g/dl | 5.12 (0.40) g/dl | 3.54 | 8.66 | 6.41 | 11.53 | 
O=S(=O)([O-])[O-].O=S(=O)([O-])[O-].O=S(=O)([O-])[O-].[Fe+3].[Fe+3] [ferric sulfate] |  |  |  |  |  |  | similar
